B1: ExFlk.6His: soluble extracellular component of Flk-1 tagged with 6 histidine residues (protein, UniProt P35918 20-762, looked up)
extracellular domain: ASVGLPGDFLHPPKLSTQKDILTILANTTLQITCRGQRDLDWLWPNAQRDSEERVLVTECGGGDSIFCKTLTIPRVVGNDTGAYKCSYRDVDIASTVYVYVRDYRSPFIASVSDQHGIVYITENKNKTVVIPCRGSISNLNVSLCARYPEKRFVPDGNRISWDSEIGFTLPSYMISYAGMVFCEAKINDETYQSIMYIVVVVGYRIYDVILSPPHEIELSAGEKLVLNCTARTELNVGLDFTWHSPPSKSHHKKIVNRDVKPFPGTVAKMFLSTLTIESVTKSDQGEYTCVASSGRMIKRNRTFVRVHTKPFIAFGSGMKSLVEATVGSQVRIPVKYLSYPAPDIKWYRNGRPIESNYTMIVGDELTIMEVTERDAGNYTVILTNPISMEKQSHMVSLVVNVPPQIGEKALISPMDSYQYGTMQTLTCTVYANPPLHHIQWYWQLEEACSYRPGQTSPYACKEWRHVEDFQGGNKIEVTKNQYALIEGKNKTVSTLVIQAANVSALYKCEAINKAGRGERVISFHVIRGPEITVQPAAQPTEQESVSLLCTADRNTFENLTWYKLGSQATSVHMGESLTPVCKNLDALWKLNGTMFSNSTNDILIVAFQNASLQDQGDYVCSAQDKKTKKRHCLVKQLIILERMAPMITGNLENQTTTIGETIEVTCPASGNPTPHITWFKDNETLVEDSGIVLRDGNRNLTIRRVRKEDGGLYTCQACNVLGCARAETLFIIEGAQEKTNLE
modifications: extracellular domain His6 tag

Experiments:
[1] = test system: GL261 and B16F0 tumor blood flow; assay: Power Doppler sonography of tumor blood flow; type: in vivo, C57BL6 mice
From the text: Power Doppler sonography was used to study the response of tumor blood vessels to ionizing radiation. This method utilizes amplitude to measure flow in microvasculature. Tumors were imaged with a 10-5 MHz ENTOS® linear probe (Advanced Technology Laboratories, Inc., Bothell, Wash., United States of America) attached to an HDI® 5000 diagnostic ultrasound system (Advanced Technology Laboratories, Inc., Bothell, Wash., United States of America).
Power Doppler sonography images were obtained with the power gain set to 82%. Care was taken to minimize motion artifact. A 20-frame cineloop sweep of the entire tumor was obtained with the probe perpendicular to the long axis of the lower extremity along the entire length of the tumor.
The images were analyzed using HDI® software (Advanced Technology Laboratories, Inc., Bothell, Wash., United States of America). This software allows direct evaluation of Power Doppler cineloop raw data. Color area was recorded for the entire tumor. […]
To determine whether inhibition of Flk-1-mediated signal transduction also enhances the cytotoxic effects of radiotherapy in established tumors, Power Doppler sonography was used to quantify blood flow in 1 cm diameter tumors treated with Flk-1 inhibitors and ionizing radiation. […] Blood flow was quantified by Power Doppler sonography on days 4 and 7 according to methods described in Example 3.

[2] = test system: GL261 and B16F0 tumor blood vessels; assay: Tumor vascular window model (vascular length density); type: in vivo, C57BL6 mice
Procedure: Penicillin/streptomycin solution (200 μl; available from GIBCO™ Invitrogen Corporation, Carlsbad, Calif., United States of America) was injected into the hind limb of the mouse prior to preparation of the window chamber. The dorsal ventral window chamber was prepared using a 3-gram plastic frame, which was applied to the skin of a test animal and remained attached for the duration of the study. Briefly, the chamber was screwed together, and the epidermis was cut and left open with a plastic covering.
To prepare a test animal for application of the plastic frame, the dorsal midline was found along the animal's back, and a clip was placed to hold the skin in position. […]
GL261 and B16F0 cells were implanted into the dorsal skin fold window chamber. […] Scanned slides were analyzed using OPTIMAS® image analysis software (Bioscan, Inc., Edmonds, Wash., United States of America; available from Media Cybernetics, Silver Spring, Md., United States of America) or IMAGE-PRO® software (Media Cybernetics, Silver Spring, Md., United States of America) as described below.
Vascular center lines were positioned by OPTIMAS® software or IMAGE-PRO® software and verified by an observer blinded to the treatment groups. Tumor blood vessels were quantified using OPTIMAS® software, which quantified the vascular length density of blood vessel within the microscopic field. […]

HUVEC [3] = assay: Radiation-induced apoptosis in endothelial cells (HUVEC); type: cell-based, human
Procedure: FIG. 5 is a bar graph depicting an increased percentage of endothelial cells undergoing apoptosis in response to VEGF-R2 inhibition followed by radiotherapy. […] Cells were treated. with 6 Gy of radiation and stained 24 hours later. The percentage of cells undergoing apoptosis was determined for each of the treatment groups as described in Example 6. The mean percentage of apoptotic cells and the standard error of the mean were determined using 4 culture plates in each treatment group.
To determine whether Flk-1 inhibitors enhance radiation-induced intrinsic cell death mechanisms, radiation-induced apoptosis in HUVEC human primary culture endothelial cells, 3B11 murine endothelial cells, and human microdermal endothelial cells (HMEC) was studied following Flk-1 inhibition. […] Cells were then treated with 6 Gy of ionizing radiation. Cultures were stained to reveal apoptotic cells 24 hours later. Endothelial cell death was quantified by counting the number of apoptotic bodies in 100 cells.

[4] = test system: tumor blood flow (B16F0, LLC, GL261, D54 tumors); assay: Restoration of tumor blood flow after radiotherapy (Doppler); type: in vivo, mice; conditions: SU5416 in combination with radiation, measured daily for 7 days; radiation-only controls restored flow by day 7
From the text: FIG. 7 is a bar graph depicting inhibition of tumor revascularization via administration of a VEGF-R2 inhibitor. Doppler analysis of blood flow in four tumor types is shown on 3, 5, and 7 days following radiation treatment. Animals received radiation treatment alone (control) or in combination with SU5416. In control animals, tumor revascularization occurs within 7 days following radiation treatment. Tumor revascularization is repressed in animals receiving SU5416 in combination with radiation treatment. Open bars, B16F0 tumors; solid bars, LLC tumors; stippled bars, GL261 tumors; hatched bars, D54 tumors.
Tumor-bearing mice were generated as described in Example 1. […] Control animals were treated with radiation alone. Doppler analysis of tumor blood flow was measured daily for 7 days using the methods described in Example 3. In control animals receiving only radiation treatment, restoration of tumor blood flow was observed by day 7.

EPCs in GI261 gliomas = assay: Endothelial progenitor cell (EPC) infiltration of irradiated tumor; type: in vivo, mice; conditions: SU5416 and radiation; tumor sections on days 1, 4 and 7
Procedure: EPCs were isolated from peripheral circulation, fixed with paraformaldehyde, and incubated with antibodies that specifically bind to Flk or to CD31. A fluorescently-labeled secondary antibody was used to detect Flk and CD31 (PECAM; platelet-endothelial cell adhesion molecule 1) proteins on the surface of EPCs.
Mice bearing GI261 gliomas, generated as described in Example 1, received radiation […] treatment of the tumor. EPCs were isolated from peripheral circulation and fluorescently labeled with Dil (1,1′-dioctadecyl-3,3,3′,3′-tetramethylindocarbocyanine perchlorate; available from Molecular Probes, Inc., Eugene, Oreg., United States of America). Labeled EPCs were then administered via tail vein injection to tumor-bearing mice immediately following tumor irradiation. Tumor sections were obtained on days 1, 4, and 7 following irradiation. In control mice, EPCs were detected in the perivascular space at day 4, and then proliferated and migrated into to the tumor by day 7.

GL261 tumors = assay: Tumor volume assessment / growth delay; type: in vivo, C57BL6 mice
Procedure: GL261 tumors were generated by subcutaneous injection of 10^6 viable GL261 cells suspended in 0.2 ml of a 0.6% agarose solution into the right thigh of C57BL6 mice. […] An equal number of large and intermediate size tumors were present in each group. […] Control mice received identical doses and schedule of either SU5416 alone or radiation alone. Twice each week, tumor volumes were measured using skin calipers as previously described by […] et al., 1998; […] et al., 1995; and Staba et al., 1998. Tumor volumes were calculated using a formula: a×b×c/2, where a=maximal width dimension, b=maximal length dimension, and c=maximal depth dimension, which was derived from the formula for an ellipsoid (πd^3/6). Data were calculated as the percent of original (day 0) tumor volume and graphed as fractional tumor volume ±1 standard deviation for each treatment group. Variance was analyzed by the Kruskal-Wallis method (Kruskal & Wallis, 1952). Growth delay was determined as the number of days required for a tumor to reach a predetermined volume, for example three-fold the original volume, or a volume of 1 cm^3. […] In a second experiment, mice were randomly assigned to each of the four treatment groups for a total of 10 mice in each group. […] Flk-1 inhibition and radiation treatments were initiated fourteen days after the tumor cells had been injected and were performed as described herein above.

[5] = in vivo; cited from earlier work
HUVEC [6] = conditions: Lin et al., 1998; cited from earlier work
Flk-1 = conditions: Lin et al., 1998; cited from earlier work

Row | Molecule | reduction in tumor blood flow, SU5416 plus radiation ([1]; 0.75 mg intraperitoneal 1 hour prior to irradiation, 3 Gy per day for 7 days, p=0.004 vs either treatment alone) | reduction in tumor blood flow, SU5416 alone ([1]; 0.75 mg intraperitoneal, 3 doses, no radiation, 1 cm GL261 and B16F0 tumors, days 4 and 7) | time to complete destruction of tumor blood vessels ([2]; 0.75 mg administered 1 hour prior to 2 Gy, p=0.02 vs radiation alone) [h] | regression of tumor blood vessels, SU5416 alone ([2]; 0.75 mg, absence of ionizing radiation) | percentage of apoptotic cells, with radiation (HUVEC [3]; 50 μM SU5416 or 10^8 pfu Ad.ExFlk plus 6 Gy, stained 24 hours later) [%] | percentage of cells undergoing apoptosis, no radiation (HUVEC [3]; 50 μM SU5416 or 10^8 pfu Ad.ExFlk, not exposed to ionizing radiation) [%] | tumor blood flow after radiation treatment [4] | extravasation of EPCs into the tumor (EPCs in GI261 gliomas) | tumor growth delay, SU5416 alone (GL261 tumors; 0.75 mg intraperitoneal on days 0, 4, 7 and 11, first experiment) | tumor volume, SU5416 followed by radiation (GL261 tumors; first experiment (FIG. 6A), 0.75 mg i.p. ×4 plus 3 Gy ×8, p=0.01 vs radiation alone, p<0.009 vs SU5416 alone) | tumor volume, SU5416 and radiation (GL261 tumors; second experiment (FIG. 6B), 10 mice per group, p=0.01 vs radiation alone, p=0.006 vs SU5416 alone) | plasma half-life [5] [h] | VEGF-induced DNA synthesis and migration in HUVEC (HUVEC [6]) | activation of Flk-1 (Flk-1)
1 | Cc1cc(C)c(/C=C2\C(=O)Nc3ccccc32)[nH]1 [SU5416] | significant reduction in tumor blood flow | minimal reduction | ≤ 24 | minimal regression of the tumor blood vessels and rapid restoration of vasculature | 14 | 4 | tumor blood flow was repressed | extravasation of EPCs into the tumor was prevented | No growth delay | significantly reduced tumor volumes | significantly reduced tumor volumes | 1 to 2 |  | 
2 | B1 |  |  |  |  |  |  |  |  |  |  |  |  | inhibits | blocks activation of Flk-1

— patent publication US20030181377A1, “Inhibition of VEGF receptor signaling reverses tumor resistance to radiotherapy” (Vanderbilt University, priority 2002, published 2003)
